“And” between values parts separate entries of the source, which are not always exact repeats. Identical values can stand only once.
How the values were obtained:
[1] = LogDoct,7.4 by shake-flask method (1-octanol / 0.2 M phosphate buffer pH 7.4); assay type: physicochemical; details: mean ± SD, read-out: LogDoct,7.4 (n = 3)
Protocol: The LogDoct,7.4 of analogues [^11C]1–3 and [^11C]SMW139 ([^11C]4) was determined using the shake-flask method (partitioning between 1-octanol and 0.2 M phosphate buffer (pH 7.4)). Determined LogDoct,7.4 values (Table 1) show the same trend as LogD values reported by Wilkinson et al.[10].
LogDoct,7.4 of [^11C]1–3 and [^11C]SMW139 was determined by the shake-flask method as described in the Supplementary Information.
Analytical HPLC chromatogram of [11C]SMW139 formulation (Platinum C18, MeCN/H2O/TFA 45:55:0.1, 1 […]
Determination of LogDoct,7.4
The distribution of radiolabelled compound between 1-octanol and 0.2 M phosphate buffer (pH = 7.4) was measured at room temperature. Briefly, 1 mL of a 20 MBq·mL-1 solution of radiolabelled compound in 0.2 M phosphate buffer (pH = 7.4) was mixed with 1 mL of 1-octanol for 1 min using a vortex mixer. After a settling period of 30 min, three samples of 100 μL were taken from both layers.
All samples were counted for radioactivity in a Wallac Universal Gammacounter 1282 (PerkinElmer, Waltham, MA, USA). The LogDoct,7.4 value was calculated according to LogDoct,7.4 = 10Log(Aoct/Abuffer), where Aoct and Abuffer represent average radioactivity counts of the three 1-octanol and the three […]
(1 picture or pasted object on this page, not shown here)

hP2X7R = target: T1, hP2X7R (Homo sapiens, UniProt Q99572); test: PET imaging in rats locally overexpressing hP2X7R in right striatum; assay type: in vivo, rat; details: PET
T1 construct: 3xFLAG (3flag); expressed in transfected cells; host or cells: rat striatum (female Wistar rats), transduced in vivo with the AAV vector rAAV_3flag-hP2X7R
T1 sequence (Q99572 1-595): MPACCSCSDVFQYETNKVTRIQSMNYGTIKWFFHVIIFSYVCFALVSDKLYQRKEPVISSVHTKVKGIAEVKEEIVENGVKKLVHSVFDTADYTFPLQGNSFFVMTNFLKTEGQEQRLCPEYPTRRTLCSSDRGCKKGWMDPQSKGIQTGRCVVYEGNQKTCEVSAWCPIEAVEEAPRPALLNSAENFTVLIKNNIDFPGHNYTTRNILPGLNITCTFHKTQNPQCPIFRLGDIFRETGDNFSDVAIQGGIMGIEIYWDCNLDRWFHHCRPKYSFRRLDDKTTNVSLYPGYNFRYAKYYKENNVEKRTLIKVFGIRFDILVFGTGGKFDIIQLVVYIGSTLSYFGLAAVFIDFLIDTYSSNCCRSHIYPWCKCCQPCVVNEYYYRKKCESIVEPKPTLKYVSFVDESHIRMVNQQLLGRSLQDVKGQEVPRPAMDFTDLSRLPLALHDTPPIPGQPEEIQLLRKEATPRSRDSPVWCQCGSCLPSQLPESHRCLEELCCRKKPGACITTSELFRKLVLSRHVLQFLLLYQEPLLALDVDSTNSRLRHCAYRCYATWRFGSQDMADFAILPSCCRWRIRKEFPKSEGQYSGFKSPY
Protocol: Uptake of [^11C]SMW139 was 1.5-fold higher in the right striatum compared with the contralateral striatum at 4–15 min p.i. (n = 3; Fig. 6A,B, and Supplementary Figure S5, 5 weeks after vector injection). […] (2.85 ± 0.69 vs. 2.30 ± 0.36 in contralateral striatum) throughout the remainder of the scanning time.
Female rats were injected with the hP2X7R expressing vector in the right striatum, and eGFP expressing vector in the left striatum, which is described in detail in the Supplementary Information. […] To confirm stable expression of hP2X7R during the time period in which PET scanning studies were conducted, autoradiography experiments were performed both prior to and following PET experiments. In a dedicated small animal PET scanner (nanoPET, Mediso Ltd.), 60 min dynamic PET scans were acquired immediately after intravenous administration of 16–20 MBq of [^11C]SMW139. […] 45 min prior to tracer injection. After data reconstruction (details in Supplementary Information), images were analysed using the freely available AMIDE software (version 0.9.2; http://amide.sourceforge.net). ROIs were drawn around ipsi- and contralateral striata. Results are expressed as standardised uptake values (SUVs) and error bars indicate standard deviation.
Stereotactic injection of viral vector […]
to a 10 µL Hamilton syringe. […]
dorsoventral -0.64 cm relative to bregma. […]
minutes before removing it slowly.
Rats were sacrificed for in
Dynamic PET imaging was performed using dedicated small animal NanoPET/CT and NanoPET/MR scanners (Mediso Ltd., Budapest, Hungary) which are equipped with identical PET components. […]
anaesthetised with 4% and 2% isoflurane in oxygen (1 L·min-1) for induction and maintenance, respectively. Rats were positioned on the scanner bed and their respiratory rate was monitored during the entire scan, and anaesthesia was adjusted whenever required. Dynamic PET scans were acquired immediately after intravenous (i.v.) administration of 16-20 MBq of [11C]SMW139 via the tail vein. For […]
hydroxypropyl)-β-cyclodextrin in water for injection 45 min prior to tracer injection. PET scans were acquired in list mode and rebinned into the following frame sequence: 4 × 5, 4 x 10, 2 x 30, 3x 60, 2 x 300, 1 x 600, 1 x 900 and 1 x 1200 s. Reconstruction was performed using a fully 3-dimensional reconstruction algorithm (Tera-TomoTM, Mediso Ltd.) with 4 iterations and 6 subsets, and an isotropic 0.4 mm voxel dimension. Images were analysed using the freely available AMIDE software (version 0.9.2; http://amide.sourceforge.net). 3D ellipsoid ROIs (dimensions x = 3.4 mm, y = 3.6 mm, z = 2.9 […]
mm) were drawn within ipsi- and contralateral striata. Results are expressed as standardised uptake values (SUVs) and error bars indicate standard deviation. SUV were calculated as follows, with cimg in MBq/mL, injected dose in MBq and bodyweight in kg:
An unpaired two-tailed t-test was used for statistical analysis of PET data, which was performed using […]
allowed to recover for 1 week after scanning. After 1 week of recovery following the final scan (12 weeks after stereotactic vector injection) animals were sacrificed, and brains were excised and stored […]
Extended single microdose toxicity study
A single microdose toxicity study according to EMEA guideline EMA/CPMP/ICH/286/1995 (December 2009) was performed in healthy Wistar rats at a 1000 times higher dose than the maximal dose […]
minimum specific activity of 18.5 GBq·µmol-1). Animals were allowed to acclimatise for 10 days, group-housed and in an enriched environment with food and water available ad libitum, and with a 12-hour light-dark cycle in a temperature controlled room.

[2] = target: T2, human P2X7 receptor (hP2X7R) (Homo sapiens, UniProt Q99572); test: In vitro autoradiography on rat brain cryosections locally overexpressing hP2X7R; details: tracer 28 nM
T2 sequence (Q99572 1-595): T1 sequence (Q99572 1-595)
Protocol: Snap frozen brain tissue was cut on a cryostat into 20 μm sections.
Female Wistar rats (n=7) were anaesthetised by intraperitoneal (i.p.)
injection of ketamine (75 mg·kg-1); Ketalar, Pfizer, Brussels, Belgium) and medetomidin (1 mg·kg-1;
Domitor, Pfizer) and positioned in a stereotactic head frame (Stoelting, Wood Dale, IL, USA). Right and
left striatum were injected with 4 µL of the hP2X7R vector (rAAV_3flag-hP2X7R) and of the control
vector (rAAV_3flag-eGFP), respectively, at a rate of 0.25 µL·min-1, using a 30-gauge needle connected
to a 10 µL Hamilton syringe. Coordinates used for striatal injection of the hP2X7R vector were:
anteroposterior 0 cm, lateral -0.28 cm and dorsoventral -0.64 cm relative to bregma. Coordinates
used for striatal injection of the eGFP vector were: anteroposterior 0 cm, lateral +0.28 cm and
dorsoventral -0.64 cm relative to bregma. After injection, the needle was kept in place for another 5
minutes before removing it slowly. To reverse the anaesthesia, the rats were injected intraperitoneally
with 0.5 mg·kg-1 atipamezol (Antisedan, Orion Pharma, Newburry, Berkshire, UK).
vitro autoradiography at 3 (n=2) and 12 (n=5) weeks after vector injection.
Snap frozen brains of female Wistar rats (rAAV_3flag-hP2X7R in right striatum; rAAV_3flag-eGFP in left
striatum; sacrificed 3 weeks (n = 2) or 12 weeks (n = 5) after vector injection) were cut on a Leica
CM3050 S cryostat (Leica Biosystems, Nussloch, Germany) at -19 °C in transversal sections of 20 µm,
thaw-mounted on SuperFrostTM Plus (Thermo Fisher Scientific, Waltham, MA, USA) object glasses,
dried overnight on silica at 4 °C and then stored at -20 °C until use.
Upon use, sections were thawed to room temperature for an hour
before washing the sections in 5 mM Tris-HCl buffer (pH 7.4) at room temperature (3x 5 min). Sections
were dried in a cold stream of air before incubation (30 min) with 5 mM Tris-HCl buffer (pH 7.4)
concentration. After incubation, sections were washed (3x 1.5 min) in ice-cold 5 mM Tris-HCl buffer
(pH 7.4) followed by a dip in ice-cold demineralised water. Sections were dried in a stream of air and
then exposed to a storage phosphor screen (BAS-IP SR 2040 E, GE Healthcare Europe GmbH,
Eindhoven, the Netherlands) and the screen was read out on a Typhoon FLA 7000 phosphor imager
(GE Healthcare Europe GmbH, Eindhoven, the Netherlands).
quantified using ImageQuantTL Analysis Toolbox (version 8.1, GE Healthcare). In case of the rat brain
sections, regions of interest (ROIs) were defined around the striatum. […] Results are expressed as mean intensity, or as
percentage of tracer binding, relative to total tracer binding in the contralateral striatum. Experiments
with rAAV_3flag-hP2X7R injected rat brains were performed as a duplicate of quadruplicates.
Statistical analysis of quantitative autoradiography data (unpaired t test, two-tailed) was performed

**Q.** Which results are given for `[11CH3]Oc1ccc(Cl)c(C(=O)NCC23CC4(F)CC(F)(CC(F)(C4)C2)C3)c1` [[^11C]SMW139]?
**A.** logD [1]: 2.7 ± 0.01; Time of peak of ipsi- to contralateral striatum ratio after tracer injection (hP2X7R): ≤ 15 min; Uptake in right (hP2X7R) striatum compared with contralateral striatum (hP2X7R; 4–15 min p.i., n = 3, 5 weeks after vector injection): 1.5 fold; Uptake in rAAV_3flag-hP2X7R striatum after pre-treatment with JNJ-47965567 (hP2X7R; 2 min p.i., JNJ-47965567 30 mg·kg^−1 s.c. 45 min prior to tracer, n = 3, 11 weeks after vector injection): 2.40 ± 0.22 SUV; Uptake in contralateral striatum (hP2X7R; 2 min p.i., baseline): 2.30 ± 0.36 SUV; Uptake in rAAV_3flag-hP2X7R striatum (hP2X7R; 2 min p.i., baseline): 2.85 ± 0.69 SUV; Mean intensity of tracer binding in rAAV_3flag-eGFP injected striatum [2]: 69 ± 10 counts; Mean intensity of tracer binding in rAAV_3flag-hP2X7R injected striatum [2]: 678 ± 55 counts; Increased binding in rAAV_3flag-hP2X7R injected striatum vs rAAV_3flag-eGFP injected striatum ([2]; n = 2): 10 ± 2 fold and 10 fold
